Data as given in patent publication US10226043B2, “Controlled release biocidal salts” (Nevada Naturals Inc., priority 2005, dated 2019).

Tests used:
[1] = test system: microbes such as bacteria, fungi and yeasts; conditions: general statement, no test described; cited from earlier work
[2] = test system: yeast cultures and A. niger; assay: Food-grade preservation test (aloe vera gel challenge); assay type: cell-based; conditions: for Log Reduction Values, day 0: day 0, initial challenge 7 logs; for Log Reduction Values, day 0 / Log Reduction Values, day 2 / Log Reduction Values, day 7 / Log Reduction Values, day 14: aloe vera gel pH 4-4.5; for Log Reduction Values, day 0 / Log Reduction Values, day 2 / Log Reduction Values, day 7 / Log Reduction Values, day 14 / Log Reduction Values, day 21 / Log Reduction Values, day 28 / Log Reduction Values, day 35 / Log Reduction Values, day 42: LAE-HCl 1725 ppm, LAE-lactate 1500 ppm, lactic acid 1500 ppm; for Log Reduction Values, day 21: day 21 (re-challenge of 7 logs at day 21); for Log Reduction Values, day 28: day 28 (re-challenges of 7 logs at day 21 and day 28); for Log Reduction Values, day 35: day 35, after the second re-challenge; for Log Reduction Values, day 42: day 42, after two re-challenges
Procedure: Aloe vera gel was prepared as a 50% dilution and dispensed as 20 g per container. Inoculum was prepared as 48 hour yeast cultures in tripticase soy broth and A. niger suspension. The inoculum was pooled and 100 μl added to each container. The preservatives were prepared as 1% solutions and added to each pre-labeled container. The samples were well mixed and stored. Recoveries were carried out at selected intervals (1:10 dilutions plated with sabourad dextrose agar. Pre-labeled plates were incubated at 25-30° C. for 48-72 hours; the pH of the samples was in the range of 4-4.5. The plates were removed from incubation, counted cfu recorded and converted to log reduction values.
Thereafter, re-challenges of 7 logs each were made at day 21 and day 28.

[3] = test system: bacteria that are part of the background flora of raw meat; assay: Antimicrobial activity of compounded films (beef loins in heat-sealed package); assay type: cell-based
Procedure: Two beef loins from a slaughterhouse were tested in a heat-sealed package simulating food packaging. The linear low density polyethylene film was compounded with 1% w/w LAE lactate biocidal salt of the invention. The log colony forming units (“CFU”) reduction values for bacteria that are part of the background flora of raw meat for both samples are 42 days indicate that there is a release of the salt of the invention from the polyethylene film to the surrounding beef surfaces.

[4] = test system: naturally-occurring aerobic bacteria of beef purge; assay: Beef purge test; assay type: cell-based; conditions: for Avg. CFU/g / % Reduction: 48 hours, refrigerated, 5% w/w (0.5 g in 10 ml purge); for % Reduction: vs control
Procedure: Two beef tenderloins containing a large quantity of purge (i.e., liquid surrounding raw meats; meat soaker pads were used to trap such liquids to the extent possible) were purchased at a local store. The purge was isolated from the packages and transferred to a series of test tubes and 10 ml of purge were placed in each test tube. To the test tubes was added 0.5 g of either LAE hydrochloride or LAE mono-laurate salts. The samples were mixed in a vortex mixer and serial dilutions were then plated on petrifilm for readings at time zero. The test tubes were then placed in the refrigerator and were again plated at 24 hours and 48 hours. The beef purge contained naturally-occurring aerobic bacteria. The goal is to have >99% reduction of the bacteria after 48 hours. LAE hydrochloride was tested at 0.5 g/10 ml w/v. […] Note that LAE-monolaurate contains about 66% of the active LAE cation.

Enterobacter aerogenes = assay: Antimicrobial activity of LAE laurate, minimum inhibitory concentration on inoculated soya agar plates; assay type: cell-based; conditions: Enterobacter aerogenes (Gram negative), 37° C., 48 hours, salt dissolved in 1,2-pentanediol
Procedure: (§1) 0.1 g of N^α-lauroyl-L-arginine ethyl ester laurate (LAE laurate) was dissolved in 100 g of 1,2-pentanediol so as to provide a solution containing 1,000 parts per million of the salt. The solution was then applied to soya agar plates which had been previously inoculated with the bacteria indicated below and subsequently incubated at 37° C. for 48 hours.

Staphylococcus aureus = assay: as above; assay type: cell-based; conditions: Staphylococcus aureus (Gram positive), 37° C., 48 hours, salt dissolved in 1,2-pentanediol
Procedure: as §1

Bacillus subtilus = assay: as above; assay type: cell-based; conditions: Bacillus subtilus (Gram positive), 37° C., 48 hours, salt dissolved in 1,2-pentanediol
Procedure: as §1

[5] = day 42, film compounded with 1% w/w salt, vs. control

Compound: CCCCCCCCCCCC(=O)N[C@@H](CCCNC(=N)N)C(=O)OCC [LAE, N^α-lauroyl-L-arginine ethyl ester]
- biocidal ions needed to inhibit or kill microbes [1]: 2-128 ppm

Compound: CC(O)C(=O)O.CCCCCCCCCCCC(=O)N[C@@H](CCCNC(=N)N)C(=O)OCC [LAE lactate]
- preservation compared with LAE-HCl ([2]; after the two re-challenges): superior to LAE-HCl
- Log Reduction Values, day 0 [2]: 0
- Log Reduction Values, day 2 [2]: 3.7
- Log Reduction Values, day 7 [2]: 6.0
- Log Reduction Values, day 14 [2]: 6.0
- Log Reduction Values, day 21 [2]: 6.0
- Log Reduction Values, day 28 [2]: 3.9
- Log Reduction Values, day 35 [2]: 4.0
- Log Reduction Values, day 42 [2]: 0.7
- Log CFU/g, day 7 ([3]; day 7, beef loin in linear low density polyethylene film compounded with 1% w/w salt): 2.31 Log CFU/g
- Log CFU/g, day 14 ([3]; day 14, beef loin in linear low density polyethylene film compounded with 1% w/w salt): 3.68 Log CFU/g
- Log CFU/g, day 21 ([3]; day 21, beef loin in linear low density polyethylene film compounded with 1% w/w salt): 3.97 Log CFU/g
- Log CFU/g, day 28 ([3]; day 28, beef loin in linear low density polyethylene film compounded with 1% w/w salt): 5.32 Log CFU/g
- Log CFU/g, day 42 ([3]; day 42, beef loin in linear low density polyethylene film compounded with 1% w/w salt): 5.57 Log CFU/g
- Day 42 % reduction vs. control [3, 5]: 97.9%
- Day 42 log reduction vs. control [3, 5]: 1.67

Compound: Oc1cc(Cl)ccc1Oc1ccc(Cl)cc1Cl [triclosan]
- biocidal ions needed to inhibit or kill microbes [1]: 2-40 ppm

Compound: [H]/N=C(\N/C(=N/[H])NCCCCCCNC(=N)NC(=N)Nc1ccc(Cl)cc1)Nc1ccc(Cl)cc1 [chlorhexidine]
- biocidal ions needed to inhibit or kill microbes [1]: 2-8 ppm

Compound: CCCCCCCCCCCC(=O)N[C@@H](CCCN=C(N)N)C(=O)OCC.Cl [LAE-HCl]
- Log Reduction Values, day 0 [2]: 0
- Log Reduction Values, day 2 [2]: 4.7
- Log Reduction Values, day 7 [2]: 6.0
- Log Reduction Values, day 14 [2]: 5.8
- Log Reduction Values, day 21 [2]: 6.0
- Log Reduction Values, day 28 [2]: 1.7
- Log Reduction Values, day 42 [2]: 0.0
- Avg. CFU/g [4]: <1.000E+02 CFU/g
- % Reduction [4]: 99.999%

Compound: N^α-lauroyl-L-arginine ethyl ester laurate [LAE laurate]
- Minimum Inhibitory Concentration (Enterobacter aerogenes): <45 ppm
- Minimum Inhibitory Concentration (Staphylococcus aureus): <40 ppm
- Minimum Inhibitory Concentration (Bacillus subtilus): <25 ppm
- Avg. CFU/g [4]: 2.82E+03 CFU/g
- % Reduction [4]: 99.96%
- performance compared with LAE-HCl ([4]; after 48 hours, based on the test requirements (>99% reduction)): performed as well as LAE-HCl

Compound: CC(O)C(=O)O (stereo not drawn) [Lactic acid]
- Log Reduction Values, day 2 [2]: 1.0
- Log Reduction Values, day 7 [2]: 0.2
- Log Reduction Values, day 14 [2]: 0.0
- Log Reduction Values, day 35 [2]: 0.0
- Log Reduction Values, day 42 [2]: 0.0
